Source: ChEMBL document CHEMBL6182860, “Discovery and rational optimization of 2, 2'-((1H-indole-2,3-diyl) bis (thio))diacetamide as novel SARS-CoV-2 RdRp inhibitors” (Bioorg Med Chem, 2025)

Assays:
[1] = Cytotoxicity against HEK293T cells assessed as reduction in cell viability incubated for 24 hrs by CCK-8 assay; assay type: toxicity, cell-based, HEK-293T; details: human
[2] = biological target: Replicase polyprotein 1ab (Severe acute respiratory syndrome coronavirus 2) (UniProt P0DTD1); assay: Inhibition of SARS-Cov-2 RdRp expressed in HEK293T cells co-transfected with pCoV-Gluc and pCOVID-nsp12/7/8 at 10 uM incubated for 24 hrs by microplate luminometric analysis relative to control; assay type: cell-based
[3] = biological target: T1, Replicase polyprotein 1ab (Severe acute respiratory syndrome coronavirus 2, UniProt P0DTD1); assay: Inhibition of SARS-Cov-2 RdRp expressed in HEK293T cells co-transfected with pCoV-Gluc and pCOVID-nsp12/7/8 incubated for 24 hrs by microplate luminometric analysis; assay type: cell-based
[4] = biological target: T1, Replicase polyprotein 1ab; assay: Inhibition of SARS-Cov-2 RdRp expressed in HEK293T cells co-transfected with pCoV-Gluc and pCOVID-nsp12/7/8/10/14 assessed as tolerance to proof reading activity of nsp14/10 exonuclease incubated for 24 hrs by microplate luminometric analysis; assay type: cell-based
[5] = biological target: Replicase polyprotein 1ab (Severe acute respiratory syndrome coronavirus 2) (UniProt P0DTD1); assay: Inhibition of SARS-Cov-2 RdRp expressed in HEK293T cells co-transfected with pCoV-Gluc and pCOVID-nsp12/7/8 at 3 uM incubated for 24 hrs by microplate luminometric analysis; assay type: cell-based
[6] = biological target: Replicase polyprotein 1ab (Severe acute respiratory syndrome coronavirus 2) (UniProt P0DTD1); assay: Inhibition of SARS-Cov-2 RdRp expressed in HEK293T cells co-transfected with pCoV-Gluc and pCOVID-nsp12/7/8 assessed as reduction in viral positive strand Gluc-RNA level incubated for 24 hrs by qRT-PCR analysis; assay type: cell-based
[7] = biological target: Replicase polyprotein 1ab (Severe acute respiratory syndrome coronavirus 2) (UniProt P0DTD1); assay: Inhibition of SARS-Cov-2 RdRp expressed in HEK293T cells co-transfected with pCoV-Gluc and pCOVID-nsp12/7/8 assessed as reduction in viral negative strand Gluc-RNA level incubated for 24 hrs by qRT-PCR analysis; assay type: cell-based
Human coronavirus OC43 [8] = assay: Antiviral activity against HCoV OC43 infected in human HCT-8 cells assessed as inhibition of viral replication pre-infected for 1 hrs followed by compound administration and measured 120 hrs post-infection by MTS assay; assay type: functional, organism-based; details: for EC50: Betacoronavirus 1, HCT-8; for Activity: time 119.0 hrs
Human coronavirus NL63 [9] = assay: Antiviral activity against HCoV NL63 infected in rhesus monkey LLC-MK2 cells assessed as inhibition of viral replication pre-infected for 1 hrs followed by compound administration and measured 120 hrs post-infection by MTS assay; assay type: functional, organism-based; details: for Activity: time 119.0 hrs
[10] = biological target: Replicase polyprotein 1ab (Severe acute respiratory syndrome coronavirus 2) (UniProt P0DTD1); assay: Inhibition of SARS-Cov-2 RdRp expressed in HEK293T cells co-transfected with pCoV-Gluc and pCOVID-nsp12/7/8 at 0.5 to 2 uM incubated for 24 hrs by microplate luminometric analysis; assay type: cell-based; details: dose 0.5-2 µM
Human coronavirus NL63 [11] = assay: Antiviral activity against HCoV NL63 infected in rhesus monkey LLC-MK2 cells assessed as inhibition of viral replication by measuring maximal inhibition at 50 uM pre-infected for 1 hrs followed by compound administration and measured 120 hrs post-infection by MTS assay relative to control; assay type: functional; details: time 119 hrs
Human coronavirus OC43 [12] = assay: Antiviral activity against HCoV OC43 infected in human HCT-8 cells assessed as inhibition of viral replication by measuring maximal inhibition at 50 uM pre-infected for 1 hrs followed by compound administration and measured 120 hrs post-infection by MTS assay relative to control; assay type: functional; details: time 119 hrs

SMILES	CC50 at 24 h [1] [µM]	inhibition [2] [%]	EC50 [3] [µM]	further results
CCOc1ccccc1NC(=O)CSc1c(SCC(=O)NCc2ccc(Cl)c(Cl)c2)[nH]c2ccccc12	> 100	84.8	2.59	
CCOc1ccccc1NC(=O)CSc1c(SCC(=O)NCc2ccc(Cl)cc2)[nH]c2ccccc12	> 100	95.4	1.77	
CCOc1ccccc1NC(=O)CSc1c(SCC(=O)NCc2ccc(C)cc2)[nH]c2ccccc12	> 100	88.3	2.76	
CCOc1ccccc1NC(=O)CSc1c(SCC(=O)NCc2ccccc2OC)[nH]c2ccccc12	> 100	73.8	2.36	
O=C(CSc1[nH]c2ccccc2c1SCC(=O)Nc1ccc(Cl)c(Cl)c1)Nc1ccc(Cl)c(Cl)c1	95.5	88.1	2.43	
O=C(CSc1[nH]c2ccccc2c1SCC(=O)Nc1ccc(Cl)c(Cl)c1)NCc1ccc(-c2ccccc2)cc1	75.1	93.8	1.91	
O=C(CSc1[nH]c2ccccc2c1SCC(=O)Nc1ccc(Cl)c(Cl)c1)NCc1cccc(Cl)c1	> 100	85.1	2.14	
CCOc1ccccc1CNC(=O)CSc1[nH]c2ccccc2c1SCC(=O)Nc1ccc(Cl)c(Cl)c1	72.5	92	1.45	EC50 [4]: 1.69 µM; inhibition [5]: Active; Maximum Inhibitory Effect Observed; inhibition ([6]; dose 5-10 µM, time 24.0 hrs): Dose-dependent-effect; inhibition ([7]; dose 5-10 µM, time 24.0 hrs): Dose-dependent-effect
Cc1ccccc1CNC(=O)CSc1[nH]c2ccccc2c1SCC(=O)Nc1ccc(Cl)c(Cl)c1	> 100	94.4	2.44	
O=C(CSc1[nH]c2ccccc2c1SCC(=O)Nc1ccc(Cl)c(Cl)c1)NCc1ccccc1F	78.6	93.6	1.44	EC50 [4]: 1.8 µM; inhibition [5]: Active; Maximum Inhibitory Effect Observed; inhibition [6]: Dose-dependent-effect; Inhibition Effect Were Twice As Potent As Remdesivir At 10 Um; inhibition [7]: Dose-dependent-effect; Inhibition Effect Were Twice As Potent As Remdesivir At 10 Um
CCOc1ccccc1NC(=O)CSc1c(SCC(=O)NCc2ccc(-c3ccccc3)cc2)[nH]c2ccccc12		39.7		
CCOc1ccccc1NC(=O)CSc1c[nH]c2ccccc12		4		
O=C(CSc1[nH]c2ccccc2c1SCC(=O)Nc1ccc(Cl)c(Cl)c1)NCc1ccc(Cl)cc1	> 100	96.6	1.88	
Cc1cccc(CNC(=O)CSc2[nH]c3ccccc3c2SCC(=O)Nc2ccc(Cl)c(Cl)c2)c1	90.3	96	1.55	EC50 [4]: 1.75 µM; inhibition [5]: Active; Maximum Inhibitory Effect Observed; inhibition [6]: Dose-dependent-effect; Inhibition Effect Were Twice As Potent As Remdesivir At 10 Um; inhibition [7]: Dose-dependent-effect; Inhibition Effect Were Twice As Potent As Remdesivir At 10 Um
O=C(CSc1c[nH]c2ccccc12)Nc1ccc(Cl)c(Cl)c1		36		
CCOc1ccccc1NC(=O)CSc1c(SCC(=O)NCc2ccccc2C)[nH]c2ccccc12	> 100	77.5	2.58	
O=C(CSc1[nH]c2ccccc2c1SCC(=O)Nc1ccc(Cl)c(Cl)c1)NCc1ccccc1	87.1	97	3.13	
O=C(CSc1[nH]c2ccccc2c1SCC(=O)Nc1ccc(Cl)c(Cl)c1)NCc1ccccc1Cl	> 100	82	2.33	
COc1ccccc1CNC(=O)CSc1[nH]c2ccccc2c1SCC(=O)Nc1ccc(Cl)c(Cl)c1	> 100	95.5	2	
CCOc1ccccc1NC(=O)CSc1c(SCC(=O)NCc2ccccc2)[nH]c2ccccc12	> 100	89.2	2.14	
CCOc1ccccc1NC(=O)CSc1c(SCC(=O)NCc2ccccc2F)[nH]c2ccccc12	> 100	89.5	0.71	EC50 [4]: 1.07 µM; EC50 (Human coronavirus OC43 [8]): 1.52 µM; Activity (Human coronavirus OC43 [8]): Dose-dependent-effect; EC50 (Human coronavirus NL63 [9]): 13.4 µM; Activity (Human coronavirus NL63 [9]): Dose-dependent-effect; inhibition [10]: Active; Better Inhibitory Effect Than Remdesivir Observed; Imax (Human coronavirus NL63 [11]): 80%; inhibition ([6]; dose 5-10 µM, time 24.0 hrs): Dose-dependent-effect; Imax (Human coronavirus OC43 [12]): 90%; inhibition ([7]; dose 5-10 µM, time 24.0 hrs): Dose-dependent-effect
Cc1ccc(CNC(=O)CSc2[nH]c3ccccc3c2SCC(=O)Nc2ccc(Cl)c(Cl)c2)cc1	> 100	91.9	1.6	
CCOc1ccccc1CNC(=O)CSc1[nH]c2ccccc2c1SCC(=O)Nc1ccccc1OCC		39.2		
CCOc1ccccc1NC(=O)CSc1c(SCC(=O)NCc2cccc(C)c2)[nH]c2ccccc12		40.2		
O=C(CSc1[nH]c2ccccc2c1SCC(=O)Nc1ccc(Cl)c(Cl)c1)NCc1ccc(Cl)c(Cl)c1	> 100	89.1	2.02	
CCC(CC)COC(=O)[C@H](C)N[P@](=O)(OC[C@H]1O[C@@](C#N)(c2ccc3c(N)ncnn23)[C@H](O)[C@@H]1O)Oc1ccccc1	> 100	87		EC50 (Human coronavirus OC43 [8]): 1.79 µM; EC50 (Human coronavirus NL63 [9]): 3.42 µM; inhibition ([6]; dose 5-10 µM, time 24.0 hrs): Dose-dependent-effect; inhibition ([7]; dose 5-10 µM, time 24.0 hrs): Dose-dependent-effect
CCOc1ccccc1NC(=O)CSc1c(SCC(=O)NCc2ccccc2Cl)[nH]c2ccccc12	> 100	80.8	2.55	
CCOc1ccccc1NC(=O)CSc1[nH]c2ccccc2c1SCC(=O)Nc1ccccc1OCC		48.5		
CCOc1ccccc1NC(=O)CSc1c(SCC(=O)NCc2cccc(Cl)c2)[nH]c2ccccc12	> 100	94.8	0.57	EC50 [4]: 0.85 µM; EC50 (Human coronavirus OC43 [8]): 1.28 µM; Activity (Human coronavirus OC43 [8]): Dose-dependent-effect; EC50 (Human coronavirus NL63 [9]): 4.11 µM; Activity (Human coronavirus NL63 [9]): Dose-dependent-effect; inhibition [10]: Active; Better Inhibitory Effect Than Remdesivir Observed; Imax (Human coronavirus NL63 [11]): 80%; inhibition ([6]; dose 5-10 µM, time 24.0 hrs): Dose-dependent-effect; Imax (Human coronavirus OC43 [12]): 90%; inhibition ([7]; dose 5-10 µM, time 24.0 hrs): Dose-dependent-effect
